# Publication PMC6270420, “Antibacterial Activity of Salicylanilide 4-(Trifluoromethyl)benzoates” (Molecules, 2013)
# pIC50: −log10 of the molar value. Where two headings read alike, the source gives them in different places.
# Experiments:
# Mtb. Praha 131 (XDR-TB) = test: microbe, parasite or virus in culture; assay type: cell-based; conditions: Mycobacterium tuberculosis, read-out: MIC Mtb. Praha 131 (XDR-TB)
# Mtb. 53/2009 = test: microbe, parasite or virus in culture; assay type: cell-based; conditions: Mycobacterium tuberculosis, read-out: MIC Mtb. 53/2009
# [1] = test system: Mycobacterium avium 330/88; test: Antimycobacterial MIC micromethod; assay type: cell-based
# Mtb. 234/2005 = test: microbe, parasite or virus in culture; assay type: cell-based; conditions: Mycobacterium tuberculosis, read-out: MIC Mtb. 234/2005
# [2] = test system: Mycobacterium tuberculosis 331/88 (H37Rv); test: Antimycobacterial MIC micromethod, Šula's medium; assay type: cell-based
# Mtb. 9449/2006 = test: microbe, parasite or virus in culture; assay type: cell-based; conditions: Mycobacterium tuberculosis, read-out: MIC Mtb. 9449/2006
# [3] = test system: M. kansasii 6509/96 (clinically isolated strain); test: Antimycobacterial MIC micromethod; assay type: cell-based; conditions: Mycobacterium kansasii, read-out: MIC M. kansasii 6509/96
# Mtb. Praha 1 = test: microbe, parasite or virus in culture; assay type: cell-based; conditions: Mycobacterium tuberculosis, read-out: MIC Mtb. Praha 1
# Mtb. 7357/1988 = test: microbe, parasite or virus in culture; assay type: cell-based; conditions: Mycobacterium tuberculosis, read-out: MIC Mtb. 7357/1988
# [4] = target: T1, mycobacterial isocitrate lyase (ICL1, Rv0467) (Mycobacterium tuberculosis, UniProt P9WKK7); test: Isocitrate lyase inhibition assay (ICL1); assay type: biochemical, Mycobacterium tuberculosis H37Rv; conditions: 10 μmol/L; read-out: % ICL inhibition at 10 μmol/L (± standard deviation)
# T1 construct: His tag (from pET-28b(+)); made in house; host or cells: E. coli BL21(DE3), pET-28b(+) plasmid
# T1 sequence (P9WKK7 1-428): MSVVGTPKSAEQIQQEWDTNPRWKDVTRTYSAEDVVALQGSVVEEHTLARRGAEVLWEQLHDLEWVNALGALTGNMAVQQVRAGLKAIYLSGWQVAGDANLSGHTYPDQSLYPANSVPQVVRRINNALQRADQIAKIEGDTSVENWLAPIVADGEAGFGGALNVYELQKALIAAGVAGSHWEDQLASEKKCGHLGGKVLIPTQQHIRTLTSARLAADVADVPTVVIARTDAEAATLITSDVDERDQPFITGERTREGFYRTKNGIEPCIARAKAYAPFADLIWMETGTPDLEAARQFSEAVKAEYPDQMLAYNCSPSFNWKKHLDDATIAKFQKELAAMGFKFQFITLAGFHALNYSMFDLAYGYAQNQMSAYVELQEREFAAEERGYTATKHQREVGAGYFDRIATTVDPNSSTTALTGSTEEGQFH
# HepG2 cells = test: Cytotoxicity evaluation (CellTiter 96 MTS); assay type: cell-based, human; conditions: Homo sapiens, read-out: IC50 HepG2
# Experimental: Seven esters and their parent salicylanilides with the most robust antimicrobial activity were tested for cytotoxicity in the human hepatocellular liver carcinoma cell line HepG2 (passages 21–24; ECACC, Salisbury, UK) using a standard colorimetric method measuring a tetrazolium salt reduction (CellTiter(R) 96 AQueous One Solution Assay, Promega G3580, Madison, WI, USA).
# The cells were routinely cultured in Minimum Essentials Eagle Medium (Sigma-Aldrich, Darmstadt, Germany) supplemented with 10% foetal bovine serum (PAA; Biotech, Prague, Czech Republic), 1% of L-glutamine solution (Sigma-Aldrich), and non-essential amino acids solution (Sigma-Aldrich) in a humidified atmosphere containing 5% CO2 at 37 °C. For subculturing, the cells were harvested after trypsin/EDTA (Sigma-Aldrich) treatment at 37 °C. The cells treated with the tested substances were used as experimental groups. Untreated HepG2 cells were used as control groups.
# The cells were seeded in density 1 × 10^4 cells per well in a 96-well plate with microscopic control. Next day, the cells were treated with each of the tested substances. […] The most of the tested compounds were prepared in incubation concentrations of 0.01–20 µM in triplicates. 4-(Trifluoromethyl)benzoic acid was applied in the concentrations of 10–4,000 µM in triplicates. The following types of controls were included: determination of 100% viability and 0% viability (the cells treated by 10% DMSO), no cell control and vehiculum controls. These checking samples were prepared in triplicates.
# The treated cells were incubated together with controls at 37 °C for 24 h in 5% CO2 atmosphere. After this time reagent from the kit CellTiter 96 AQueous One Solution Cell Proliferation Assay was added. The CellTiter 96 assay is based on the reduction of tetrazolium salt MTS [3-(4,5-dimethylthiazol-2-yl)-5-(3-carboxymethoxyphenyl)-2-(4-sulfophenyl)-2H-tetrazolium] to water-soluble formazan dye by metabolically active cells. The reduction of the reagent is attributed to availability of NADH or NADPH. The decline in levels of these metabolically important compounds in the cell causes that the production of formazan is reduced. The tested plate was incubated for 2 h at 37 °C and 5% CO2 and after this time, the absorbance was recorded at 490 nm using a 96-well plate reader (TECAN, Infinite M200, Grödig, Austria).
# The results were expressed as inhibitory concentration which is necessary to inhibit cell viability to 50% from the maximal (control) viability (IC50). A standard toxicological parameter IC50 was calculated in each of the tested substances using GraphPad Prism software (version 5.02; GraphPad Software Inc., San Diego, CA, USA).
# [5] = test system: Mycobacterium tuberculosis, M. avium and M. kansasii; test: Antimycobacterial MIC, summary over all mycobacterial strains; assay type: cell-based
# [6] = test system: Mycobacterium kansasii 235/80; test: Antimycobacterial MIC micromethod; assay type: cell-based; conditions: read-out: MIC M. kansasii 235/80
# [7] = test system: eight Gram-positive and Gram-negative strains; test: Antibacterial microdilution, summary over eight strains; assay type: cell-based; conditions: read-out: MIC, antibacterial action
# Experimental: The in vitro antibacterial activity was assayed against eight Gram-positive and Gram-negative strains: Staphylococcus aureus CCM 4516/08, methicillin-resistant Staphylococcus aureus H 5996/08 (MRSA), Staphylococcus epidermidis H 6966/08, Enterococcus sp. J 14365/08; Escherichia coli CCM 4517, Klebsiella pneumoniae D 11750/08, ESBL-positive Klebsiella pneumoniae J 14368/08, and Pseudomonas aeruginosa CCM 1961.
# The microdilution broth method modified according to standard M07-A07 in Mueller-Hinton broth (HiMedia Laboratories, Mumbai, India) adjusted to pH 7.4 (±0.2) was used. The tested compounds were dissolved in DMSO to the final concentrations ranging from […]. Benzylpenicillin (penicillin G) was used as a comparative drug. Bacterial inoculum in sterile water was prepared to match 0.5 McFarland scale ([…]). The minimum inhibitory concentrations were assayed as 90% (IC90) or higher reduction of growth when compared to the control. The determination of results was performed visually and spectrophotometrically (at 540 nm). The values of MICs were determined after 24 and 48 h of incubation in the darkness at 35 °C (±0.1) in a humid atmosphere.
# M. kansasii = test: Antimycobacterial MIC, summary for M. kansasii; assay type: cell-based; conditions: Mycobacterium kansasii, both strains; read-out: MICs towards M. kansasii
# [8] = 336 h, 14 d, read-out: MIC Mtb. 331/88
# [9] = 504 h, 21 d, read-out: MIC Mtb. 331/88
structure (smiles),measurement,setting,value
O=C(Oc1ccc(Br)cc1C(=O)Nc1ccc(C(F)(F)F)cc1)c1ccc(C(F)(F)F)cc1 [1r],MIC,Mtb. Praha 131 (XDR-TB); 336 h,0.5 µM
same,MIC,Mtb. Praha 131 (XDR-TB); 504 h,1 µM
same,MIC,Mtb. 53/2009; 336 h,1 µM
same,MIC,Mtb. 53/2009; 504 h,2 µM
same,MIC,"[1]; 330/88, 336 h, 14 d",2 µM
same,MIC,"[1]; 330/88, 504 h, 21 d",4 µM
same,MIC,Mtb. 234/2005; 336 h,0.5 µM
same,MIC,Mtb. 234/2005; 504 h,1 µM
same,MIC,[2]; [8],1 µM
same,MIC,[2]; [9],1 µM
same,MIC,"[2]; time not stated, read-out: MIC against M. tuberculosis",1 µM
same,MIC,Mtb. 9449/2006; 336 h,1 µM
same,MIC,Mtb. 9449/2006; 504 h,1 µM
same,MIC,"[3]; 168 h, 7 d",1 µM
same,MIC,"[3]; 336 h, 14 d",2 µM
same,MIC,"[3]; 504 h, 21 d",4 µM
same,MIC,Mtb. Praha 1; 336 h,0.5 µM
same,MIC,Mtb. Praha 1; 504 h,1 µM
same,MIC,Mtb. 7357/1988; 336 h,1 µM
same,MIC,Mtb. 7357/1988; 504 h,1 µM
same,inhibition at 10 µM,[4],≥ 20%
same,pIC50,"HepG2 cells; HepG2, 24 h",5.69
same,MIC,"[5]; range over all strains and times, read-out: MICs against all mycobacterial strains",1 to 4 µM
same,MIC,"[6]; 235/80, 168 h, 7 d",1 µM
same,MIC,"[6]; 235/80, 336 h, 14 d",2 µM
same,MIC,"[6]; 235/80, 504 h, 21 d",4 µM
"O=C(O)c1ccc(C(F)(F)F)cc1 [CF3-BA, 4-(trifluoromethyl)benzoic acid, reference compound]",MIC,"[1]; 330/88, 336 h, 14 d",> 1000 µM
same,MIC,"[1]; 330/88, 504 h, 21 d",> 1000 µM
same,MIC,[2]; [8],> 1000 µM
same,MIC,[2]; [9],> 1000 µM
same,MIC,[7],> 500 µM
same,MIC,[3]; 168 h,250 µM
same,MIC,"[3]; 336 h, 14 d",1000 µM
same,MIC,"[3]; 504 h, 21 d",1000 µM
same,pIC50,"HepG2 cells; HepG2, 24 h, cytotoxicity",3.25
same,susceptibility of other mycobacteria,"[5]; at 1,000 µmol/L, mycobacteria other than M. kansasii",completely insusceptible
same,MIC,M. kansasii,≥ 250 µM
same,MIC,"[6]; 235/80, 168 h, 7 d",1000 µM
same,MIC,"[6]; 235/80, 336 h, 14 d",> 1000 µM
same,MIC,"[6]; 235/80, 504 h, 21 d",> 1000 µM
